# Reference: patent US20220227709A1, “COMPOSITIONS AND METHODS FOR TREATING SCHISTOSOMA INFECTIONS” (THE BOARD OF REGENTS OF THE UNIVERSITY OF TEXAS SYSTEM, priority 2019, published 2022)
# Columns and labels:
# [1] = test system: S. japonicum adult schistosomes; test: Schistosomiasis screening, adult worm killing (S. japonicum); type: cell-based, Schistosoma japonicum; details: adult worms, final concentration 143 μM, 45 minutes incubation, washed, cultured 10-14 days, read day 14
# From the text: (§1) Schistosomiasis screening methods Strains of S. mansoni, S. haematobium, and S. japonicum were maintained by passage through species-specific snail intermediate hosts (Biomphlaria glabrata, Bulinus truncatus, and Oncomelania hupensis, respectively) and Golden Syrian Hamsters as a definitive host. Definitive host animals were sacrificed in accordance with IACUC protocol (UTHSCSA IACUC Protocol #08039) by intraperitoneal injection using Fatal-Plus (Butler Animal Health, Ohio), a sodium pentobarbital solution, with 10% heparin added. The adult parasites were obtained by perfusion as previously described using 0.9% saline containing EDTA.^1 Derivatives were solubilized in DMSO and diluted to working concentration of 50 mM and added directly to each well of a 24-well plate within 2-24 hours after harvesting adult schistosomes from the hamsters at a final concentration of 143 μM. Each analog was tested in triplicate. DMSO, oxamniquine (OXA, the parent drug known to kill only S. mansoni), or Hycanthone (HC, a carcinogen known to kill S. mansoni and S. haematobium) were used as controls as needed. Drugs were incubated with the worms at 37° C., 5% CO2 for 45 minutes, mimicking physiological conditions. The worms were washed with plain media 3 times to remove any residual derivatives. Worms were then incubated in culture media as previously described for a period of 10-14 days. On day 14, the assay gives % worms alive as an efficacy data point. For comparison, Oxaminiquine scores 50% alive in this assay.
# [2] = test system: S. haematobium adult schistosomes; test: Schistosomiasis screening, adult worm killing (S. haematobium); type: cell-based, Schistosoma haematobium; details: adult worms, final concentration 143 μM, 45 minutes incubation, washed, cultured 10-14 days, read day 14
# From the text: as §1
# [3] = test system: S. mansoni adult schistosomes; test: Schistosomiasis screening, adult worm killing (S. mansoni); type: cell-based, Schistosoma mansoni; details: for Kill % S. m: adult worms, final concentration 143 μM, 45 minutes incubation, washed, cultured 10-14 days, read day 14
# From the text: as §1
Structure (SMILES),Kill % S. m [3] [%],also measured
"O=[N+]([O-])c1cc(NCC2(Cc3cccc(C(F)(F)F)c3)CCN(Cc3c[nH]c4ccccc34)C2)ccc1CO (stereo not shown) [CIDD-0149830, (4-(((1-((1H-indol-3-yl)methyl)-3-(3-(trifluoromethyl)benzyl)pyrrolidin-3-yl)methyl)amino)-2-nitrophenyl)methanol]",100,Kill % S. j [1]: 100%; Kill % S. h [2]: 100%
CN(C)CCNC(=O)c1cccc2c(N)c3cc(Cl)ccc3nc12 [CIDD-0150235],60,–
Nc1c2ccccc2nc2c(C(=O)NCCNCCO)cccc12 [CIDD-0150236],43,–
Cc1c2ccccc2nc2c(C(=O)NCCN(C)C)cccc12 [CIDD-0150237],33,–
CN(C)CCCNC(=O)c1cccc2c(N)c3ccccc3nc12 [CIDD-0150238],6,–
CCN(CC)CCNC(=O)c1cccc2c(N)c3ccccc3nc12 [CIDD-0150239],36,–
Oc1cccc2c1ccc1c(F)c3ccccc3cc12 [CIDD-0150240],20,–
Cc1c[nH]c2c1C13CC1CN(S(C)(=O)=O)C3=CC2=O (stereo not shown) [CIDD-0150241],33,–
O[C@@H]1c2ccccc2-c2cc3ccccc3c(F)c2[C@H]1O [CIDD-0150242],56,–
O=C(O)CCCn1c2ccccc2c(=O)c2ccccc21 [CIDD-0150302],80,Kill % S. j [1]: 40%; Kill % S. h [2]: 20%
O=S([O-])([O-])=S.O=S([O-])([O-])=S.[Ag+].[Na+].[Na+].[Na+] [CIDD-0150303],100,Kill % S. j [1]: 100%; Kill % S. h [2]: 40%
C=CCN(N=O)C(C)OC(C)=O (stereo not shown) [CIDD-0150326],3.3,–
CC(=O)OC(C)N(N=O)C1CC1 (stereo not shown) [CIDD-0150327],3.3,–
O=[N+]([O-])c1ccc2c3c1ccc1cccc(c13)[C@@H](O)[C@H]2O [CIDD-0150328],16,–
O=[N+]([O-])c1ccc2c(O)cc3cccc4ccc1c2c43 [CIDD-0150329],40,–
O=[N+]([O-])c1ccc2cc(O)c3cccc4ccc1c2c43 [CIDD-0150330],10,–
Cc1nc(SC[C@H](N)C(=O)O)c(N)n1C [CIDD-0150331],10,–
CC(=O)Nc1cnc(COC(N)=O)n1C [CIDD-0150332],17,–
CCCS(=O)(=O)OCC [CIDD-0150333],20,–
CCCCCS(=O)(=O)OCC [CIDD-0150334],47,–
Cn1c([N+](=O)[O-])nc2c3ccccc3ccc21 [CIDD-0150605],13,–
Cn1c([N+](=O)[O-])nc2ccc3ccccc3c21 [CIDD-0150606],100,Kill % S. h [2]: 85.7%
OCC(O)COc1ccccc1C1CCCC1 (stereo not shown) [CIDD-0150607],50,–
O=Nc1ccc2ccc3cc4ccccc4c4ccc1c2c34 [CIDD-0150608],93.3,Kill % S. h [2]: 71.4%
c1cc2ccc3c4ccc5cccc(c(c1)c23)c54 [CIDD-0150609],16.6,–
C[C@@H](O)[C@H]1C(=O)N2C(C(=O)O)=C(S[C@@H]3CN[C@H](C(=O)Nc4cccc(C(=O)O)c4)C3)[C@H](C)[C@H]12 [CIDD-0150610],100,Kill % S. j [1]: 100%; Kill % S. h [2]: 100%
"CC(C)NCC1CCc2cc(CO)c([N+](=O)[O-])cc2N1 (stereo not shown) [Oxaminiquine, oxamniquine, reference compound]",–,"% worms alive ([3]; day 14, control drug for comparison, species not given): 50%"
